PMC8102479, “Structural and mechanistic insights into the bifunctional HISN2 enzyme catalyzing the second and third steps of histidine biosynthesis in plants” (Scientific Reports, 2021)

Experiments:
[1] = biological target: T1, MtHISN2 (Medicago truncatula, UniProt A0A072U2X9, R183E); assay: isothermal titration calorimetry; type: binding
T1 construct: gene MTR_7g084480; N-truncated at Val49 (chloroplast transit peptide removed), residues 49-283, N-terminal Ser-Asn-Ala linker left, His6-tag cleaved with TEV; E. coli BL21 Gold; both PRA-CH and PRA-PH domains
T1 sequence (A0A072U2X9 entry or part of it R183E): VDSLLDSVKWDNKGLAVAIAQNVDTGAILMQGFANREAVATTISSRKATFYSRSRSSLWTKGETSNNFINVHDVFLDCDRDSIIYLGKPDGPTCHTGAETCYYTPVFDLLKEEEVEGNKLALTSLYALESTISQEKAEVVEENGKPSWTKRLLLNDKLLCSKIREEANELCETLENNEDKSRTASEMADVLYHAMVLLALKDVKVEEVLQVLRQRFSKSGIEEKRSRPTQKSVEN
Description: (§1) isothermal titration calorimetry on MtHISN2 | three within the PRA-PH domain (R183E, T197V, and Y240T) were tested

[2] = biological target: T2, MtHISN2 (Medicago truncatula, UniProt A0A072U2X9, Y240T); assay: isothermal titration calorimetry; type: binding
T2 construct: gene MTR_7g084480; N-truncated at Val49 (chloroplast transit peptide removed), residues 49-283, N-terminal Ser-Asn-Ala linker left, His6-tag cleaved with TEV; E. coli BL21 Gold; both PRA-CH and PRA-PH domains
T2 sequence (A0A072U2X9 entry or part of it Y240T): as the sequence (A0A072U2X9 entry or part of it R183E) above, with E135R, Y192T counted along it
Description: as §1

[3] = biological target: T3, MtHISN2 (Medicago truncatula, UniProt A0A072U2X9, T197V); assay: isothermal titration calorimetry; type: binding
T3 construct: gene MTR_7g084480; N-truncated at Val49 (chloroplast transit peptide removed), residues 49-283, N-terminal Ser-Asn-Ala linker left, His6-tag cleaved with TEV; E. coli BL21 Gold; both PRA-CH and PRA-PH domains
T3 sequence (A0A072U2X9 entry or part of it T197V): as the sequence (A0A072U2X9 entry or part of it R183E) above, with E135R, T149V counted along it
Description: as §1

[4] = biological target: T4, MtHISN2 (Medicago truncatula, UniProt A0A072U2X9, H143E); assay: isothermal titration calorimetry; type: binding
T4 construct: gene MTR_7g084480; N-truncated at Val49 (chloroplast transit peptide removed), residues 49-283, N-terminal Ser-Asn-Ala linker left, His6-tag cleaved with TEV; E. coli BL21 Gold; both PRA-CH and PRA-PH domains
T4 sequence (A0A072U2X9 entry or part of it H143E): as the sequence (A0A072U2X9 entry or part of it R183E) above, with H95E, E135R counted along it

[5] = biological target: T5, MtHISN2 (Medicago truncatula, UniProt A0A072U2X9); assay: isothermal titration calorimetry; type: binding
T5 construct: gene MTR_7g084480; N-truncated at Val49 (chloroplast transit peptide removed), residues 49-283, N-terminal Ser-Asn-Ala linker left, His6-tag cleaved with TEV; E. coli BL21 Gold; both PRA-CH and PRA-PH domains
T5 sequence (A0A072U2X9 entry or part of it): as the sequence (A0A072U2X9 entry or part of it R183E) above, with E135R counted along it

[6] = biological target: T5, MtHISN2; assay: ProFAR formation monitored at […] nm; type: biochemical
[7] = biological target: T6, MtHISN2 (Medicago truncatula, UniProt A0A072U2X9, S113A); assay: isothermal titration calorimetry; type: binding
T6 construct: gene MTR_7g084480; N-truncated at Val49 (chloroplast transit peptide removed), residues 49-283, N-terminal Ser-Asn-Ala linker left, His6-tag cleaved with TEV; E. coli BL21 Gold; both PRA-CH and PRA-PH domains
T6 sequence (A0A072U2X9 entry or part of it S113A): as the sequence (A0A072U2X9 entry or part of it R183E) above, with S65A, E135R counted along it
Text: (§2) isothermal titration calorimetry on MtHISN2 | Four mutants within the PRA-CH domain (K109A, T112V, S113A, and H143E)

[8] = biological target: T7, MtHISN2 (Medicago truncatula, UniProt A0A072U2X9, T112V); assay: isothermal titration calorimetry; type: binding
T7 construct: gene MTR_7g084480; N-truncated at Val49 (chloroplast transit peptide removed), residues 49-283, N-terminal Ser-Asn-Ala linker left, His6-tag cleaved with TEV; E. coli BL21 Gold; both PRA-CH and PRA-PH domains
T7 sequence (A0A072U2X9 entry or part of it T112V): as the sequence (A0A072U2X9 entry or part of it R183E) above, with T64V, E135R counted along it
Text: as §2

[9] = biological target: T8, MtHISN2 (Medicago truncatula, UniProt A0A072U2X9, K109A); assay: isothermal titration calorimetry; type: binding
T8 construct: gene MTR_7g084480; N-truncated at Val49 (chloroplast transit peptide removed), residues 49-283, N-terminal Ser-Asn-Ala linker left, His6-tag cleaved with TEV; E. coli BL21 Gold; both PRA-CH and PRA-PH domains
T8 sequence (A0A072U2X9 entry or part of it K109A): as the sequence (A0A072U2X9 entry or part of it R183E) above, with K61A, E135R counted along it
Text: as §2

[10] = biological target: HISN2 enzyme from Medicago truncatula (MtHISN2), construct N-truncated at Val49 (Medicago truncatula); assay: SEC; HiLoad Superdex 200 16/60; 25 mM Hepes-NaOH pH 7.5, 100 mM KCl, 50 mM NaCl, 100 uM ZnCl2, 1 mM TCEP; elution profile not shown

Kd [1] | Kd [2] | Kd [3] | Kd [4] | Kd [5] | inhibition at 100 µM [6] | Kd [7] | Kd [8] | Kd [9] | stoichiometry N [10] | Molecule
31 ± 3 µM | 52 ± 9 µM | 29 ± 3 µM | 68 µM | 47 ± 6 µM | > 60% | 64 ± 12 µM | 75 ± 8 µM | 71 ± 18 µM | – | Nc1ncnc2c1ncn2[C@@H]1O[C@H](COP(=O)(O)O)[C@@H](O)[C@H]1O [AMP]
– | – | – | – | – | – | – | – | – | 2 | HISN2 enzyme from Medicago truncatula (MtHISN2), construct N-truncated at Val49
